# Source: patent US11242344B2, “(4-hydroxypyrrolidin-2-yl)-heterocyclic compounds and methods of use thereof” (Genentech, Inc., priority 2017, dated 2022)
# Legend:
# [1] = target: NanoLuc VHL fusion protein (Homo sapiens (Human), UniProt P40337); test: VHL HEK-293 BRET Assay (NanoBRET Target Engagement); assay type: cell-based; settings: geometric mean where more than one measurement
# Protocol: The VHL NanoBRET™ Target Engagement Assay analyzes the apparent affinity of test compounds for VHL in cells by competitive displacement of a VHL NanoBRET™ tracer reversibly bound to a NanoLuc® VHL fusion protein stably expressed in the cells. Test compounds were transferred to the assay plate (384 Well White Non-Binding Corning Assay Plates (Corning-3574)) using an Echo 555 Liquid Handler (Labcyte) in 2.5 nL increments and, as appropriate, intermediate stock concentrations of compounds, in order to prepare a titration series. 50 nL of control compound (10 mM; parental unlabeled VHL antagonist; see structure below) and 50 nL of DMSO (negative control) were dispensed into the appropriate control wells. DMSO was backfilled to a final volume of 50 nL as required. 50 nl per well of 1 mM VHL NanoBRET™ Tracer in DMSO (NanoBRET™ Tracer-PEG2-590 (see structure below)) was transferred into each well using an Echo 555 (ultimately yielding a final concentration of 1 uM). HEK 293 RT VHL-NanoLuc® stable cells were cultured in DMEM High Glucose with Pyruvate, 10% fetal bovine serum, 2 mg/mL of Geneticin Selective Antibiotic (50 mg/ml) and 2 mM HEPES (1 M). Cells were seeded in Opti-MEM (Life Technologies-11058-021), 1.7×10^5 cells/mL, 40 μl per well into the assay plate, centrifuged at 500 rpm for 30 seconds and incubated for 2 hours. Max Signal control wells consisted of DMSO only treated wells. Minimum Signal control wells contained of 10 uM parental unlabeled VHL antagonist (control compound—see structure below). 3× Complete Substrate plus Inhibitor Solution was prepared in Opti-MEM (consists of a 1:166 dilution of NanoBRET™ Nano-Glo® Substrate plus a 1:500 dilution of Extracellular NanoLuc® Inhibitor in Opti-MEM), and 20 ul was dispensed into each well of the 384-well plate and centrifuged at 1000 rpm for 1 minute, then incubated for 2 minutes at room temperature. Background Signal control wells were prepared without tracer for background correction steps. Plates were read using a PerkinElmer Envision Reader (model 2104-0020) equipped with Luminescence option (Mirror: BRET2 Enh (PE Barcode 659), Emission Filter: Omega 610LP (Barcode 504), 2nd Emission Filter: Umbelliferone 460 (Barcode 207), Measurement height: 6.5 mm, Measurement time: 1 s). The raw BRET ratio values were calculated by dividing the acceptor emission value (610 nm) by the donor emission value (460 nm) for each sample. To correct for background, the BRET ratio in the absence of tracer (average of no-tracer control samples) was subtracted from the BRET ratio of each sample. Raw BRET units were converted to milliBRET units (mBU) by multiplying each raw BRET value by 1,000. The normalized NanoBRET™ signal was calculated relative to the Max Signal control wells (DMSO treated control wells) and the Minimum Signal control wells. Percentage inhibition was calculated relative to the Minimum Signal control and Maximum Signal control wells. IC50 values were derived by four parameter curve fitting using the Robust method.
# [2] = target: VHL co-expressed with Elongins B and C (Homo sapiens (Human), UniProt P40337); test: Surface Plasmon Resonance Assay; assay type: binding; settings: SPR measured VHL affinity; geometric mean where more than one measurement
# In short: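 Binding kinetics by SPR at 20 °C: compound concentration series run from low to high at 80 μL/min over VHL–Elongin B/C complex, immobilized via avidin tag on SA chip. Buffer was HEPES pH 7.2 with 150 mM NaCl, TCEP, Tween 20, PEG3350 and 2% DMSO; association/dissociation times adjusted per compound.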
# [3] = target: VHL Elongin B/C complex (Homo sapiens (Human), UniProt P40337); test: Fluorescence Polarization (FP) VHL Binding Assay; settings: VHL binding, FP assay; geometric mean where more than one measurement
# In short: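 Readout is polarization of a TAMRA-coupled VHL ligand (1.67 nM final) displaced from the VHL(E55-D213)/Elongin B/C complex (2.64 nM final) after 1 h incubation at room temperature in pH 8.0 Tris buffer with 1% DMSO. Data normalized to no-VHL and compound-free controls, with compound fluorescence subtracted, and fitted by four-parameter curve for IC50.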
# Chain of VHL Elongin B/C complex (P40337 whole entry, looked up): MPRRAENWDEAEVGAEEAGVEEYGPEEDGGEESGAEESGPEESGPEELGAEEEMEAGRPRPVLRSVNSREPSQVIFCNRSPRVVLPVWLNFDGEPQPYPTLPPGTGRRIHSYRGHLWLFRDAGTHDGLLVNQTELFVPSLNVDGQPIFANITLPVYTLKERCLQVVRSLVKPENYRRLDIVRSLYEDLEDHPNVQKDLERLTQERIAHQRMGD
# Chain of VHL Elongin B/C complex (Q15370 whole entry partner, looked up): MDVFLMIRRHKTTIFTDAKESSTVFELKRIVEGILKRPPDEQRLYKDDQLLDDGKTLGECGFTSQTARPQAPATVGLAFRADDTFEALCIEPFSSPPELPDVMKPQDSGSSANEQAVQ
# Chain of VHL Elongin B/C complex (Q15369 whole entry partner, looked up): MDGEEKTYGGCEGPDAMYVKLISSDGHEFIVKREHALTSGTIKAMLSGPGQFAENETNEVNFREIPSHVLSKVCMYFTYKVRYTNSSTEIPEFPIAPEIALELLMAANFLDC
# Chain of NanoLuc VHL fusion protein (P40337 whole entry, looked up, the tested form may be a part): as the sequence (P40337 whole entry, looked up) above
# Chain of NanoLuc VHL fusion protein (Q15370 whole entry partner, looked up, the tested form may be a part): as the sequence (Q15370 whole entry partner, looked up) above
# Chain of NanoLuc VHL fusion protein (Q15369 whole entry partner, looked up, the tested form may be a part): as the sequence (Q15369 whole entry partner, looked up) above
# Chain of VHL co-expressed with Elongins B and C (P40337 whole entry, looked up): as the sequence (P40337 whole entry, looked up) above
# Chain of VHL co-expressed with Elongins B and C (Q15370 whole entry partner, looked up): as the sequence (Q15370 whole entry partner, looked up) above
# Chain of VHL co-expressed with Elongins B and C (Q15369 whole entry partner, looked up): as the sequence (Q15369 whole entry partner, looked up) above
IC50 [1] [µM],Kd [2] [µM],IC50 [3] [µM],Compound
28.1,7.42,20.6,"Cc1ncsc1-c1ccc([C@]2(C)NC(C3C[C@@H](O)CN3C(=O)C(c3cnn(C)c3)C(C)C)=NC2=O)cc1 (single isomer, unassigned) [Example 110.1]"
≥ 100,104,≥ 400,"Cc1ncsc1-c1ccc([C@]2(C)NC(C3C[C@@H](O)CN3C(=O)C(c3cnn(C)c3)C(C)C)=NC2=O)cc1 (single isomer, unassigned) [Example 110.2]"
≥ 100,150,≥ 400,"Cc1ncsc1-c1ccc([C@]2(C)NC(C3C[C@@H](O)CN3C(=O)C(c3cnn(C)c3)C(C)C)=NC2=O)cc1 (single isomer, unassigned) [Example 110.3]"
≥ 100,150,≥ 400,"Cc1ncsc1-c1ccc([C@]2(C)NC(C3C[C@@H](O)CN3C(=O)C(c3cnn(C)c3)C(C)C)=NC2=O)cc1 (single isomer, unassigned) [Example 110.4]"
≥ 100,31.8,111,"Cc1ncsc1-c1ccc([C@]2(C)NC(C3C[C@@H](O)CN3C(=O)[C@@H](NC(=O)C3(C#N)CC3)C(C)(C)C)=NC2=O)cc1 (single isomer, unassigned) [Example 111.1]"
5.11,1.86,4.97,"Cc1ncsc1-c1ccc([C@]2(C)NC(C3C[C@@H](O)CN3C(=O)[C@@H](NC(=O)C3(C#N)CC3)C(C)(C)C)=NC2=O)cc1 (single isomer, unassigned) [Example 111.2]"
66.4,12.1,23.3,"Cc1ncsc1-c1ccc([C@]2(C)NC(C3C[C@@H](O)CN3C(=O)[C@@H]3CCCN3S(C)(=O)=O)=NC2=O)cc1 (single isomer, unassigned) [Example 112.1]"
100,150,≥ 400,"CCN1N=C([C@@H]2C[C@@H](O)CN2C(=O)C(c2cc(C)no2)C(C)C)NC1(C)C (single isomer, unassigned) [Example 115.1]"
25.7,4.03,40.7,"CCN1N=C([C@@H]2C[C@@H](O)CN2C(=O)C(c2cc(C)no2)C(C)C)NC1(C)C (single isomer, unassigned) [Example 115.2]"
100,5.1,4.35,"Cc1ncsc1-c1ccc([C@]2(C)NC(C3C[C@@H](O)CN3C(=O)C(c3cc(O)no3)C(C)C)=NC2=O)cc1 (single isomer, unassigned) [Example 116.1]"
100,5.3,35.4,"Cc1ncsc1-c1ccc([C@]2(C)NC(C3C[C@@H](O)CN3C(=O)C(c3cc(O)no3)C(C)C)=NC2=O)cc1 (single isomer, unassigned) [Example 116.4]"
100,155,≥ 400,"Cc1noc(C(C(=O)N2C[C@H](O)CC2C2=NC(=O)[C@](C)(c3ccc(-c4scnc4C)cc3)N2)C(C)C)n1 (single isomer, unassigned) [Example 117.1]"
1.9,0.625,1.62,"Cc1noc(C(C(=O)N2C[C@H](O)CC2C2=NC(=O)[C@](C)(c3ccc(-c4scnc4C)cc3)N2)C(C)C)n1 (single isomer, unassigned) [Example 117.2]"
100,217,≥ 400,"Cc1noc(C(C(=O)N2C[C@H](O)CC2C2=NC(=O)[C@](C)(c3ccc(-c4scnc4C)cc3)N2)C(C)C)n1 (single isomer, unassigned) [Example 117.3]"
100,150,≥ 400,"Cc1noc(C(C(=O)N2C[C@H](O)CC2C2=NC(=O)[C@](C)(c3ccc(-c4scnc4C)cc3)N2)C(C)C)n1 (single isomer, unassigned) [Example 117.4]"
100,61.5,157,"Cc1ncsc1-c1ccc([C@]2(C)NC(C3C[C@@H](O)CN3C(=O)C(c3cn(C)nn3)C(C)C)=NC2=O)cc1 (single isomer, unassigned) [Example 118.1]"
0.939,0.128,0.418,"Cc1ncsc1-c1ccc([C@]2(C)NC(C3C[C@@H](O)CN3C(=O)C(c3cn(C)nn3)C(C)C)=NC2=O)cc1 (single isomer, unassigned) [Example 118.2]"
100,21.2,150,"Cc1ncsc1-c1ccc([C@]2(C)NC(C3C[C@@H](O)CN3C(=O)C(c3cn(C)nn3)C(C)C)=NC2=O)cc1 (single isomer, unassigned) [Example 118.3]"
100,102,≥ 400,"Cc1ncsc1-c1ccc([C@]2(C)NC(C3C[C@@H](O)CN3C(=O)C(c3cn(C)nn3)C(C)C)=NC2=O)cc1 (single isomer, unassigned) [Example 118.4]"
100,150,≥ 400,"Cc1cc(C(C(=O)N2C[C@H](O)CC2C2=NC(=O)[C@](C)(c3ccc(-c4scnc4C)cc3)N2)C(C)C)sn1 (single isomer, unassigned) [Example 119.1]"
100,150,≥ 400,"Cc1cc(C(C(=O)N2C[C@H](O)CC2C2=NC(=O)[C@](C)(c3ccc(-c4scnc4C)cc3)N2)C(C)C)sn1 (single isomer, unassigned) [Example 119.2]"
71.1,17.5,72.4,"Cc1cc(C(C(=O)N2C[C@H](O)CC2C2=NC(=O)[C@](C)(c3ccc(-c4scnc4C)cc3)N2)C(C)C)sn1 (single isomer, unassigned) [Example 119.3]"
100,150,≥ 400,"Cc1cc(C(C(=O)N2C[C@H](O)CC2C2=NC(=O)[C@](C)(c3ccc(-c4scnc4C)cc3)N2)C(C)C)sn1 (single isomer, unassigned) [Example 119.4]"
100,29.2,65.5,"CC(=O)N1CCC[C@H]1C(=O)N1C[C@H](O)CC1C1=NC(=O)[C@](C)(c2ccc(-c3scnc3C)cc2)N1 (single isomer, unassigned) [Example 121.1]"
100,≥ 150,≥ 400,"Cc1ncsc1-c1ccc([C@]2(C)NC(C3C[C@@H](O)CN3C(=O)[C@@H]3CCCCN3S(C)(=O)=O)=NC2=O)cc1 (single isomer, unassigned) [Example 122.1]"
39,6.83,16.7,"Cc1ncsc1-c1ccc([C@]2(C)NC(C3C[C@@H](O)CN3C(=O)[C@@H]3CCCCN3S(C)(=O)=O)=NC2=O)cc1 (single isomer, unassigned) [Example 122.2]"
100,55.6,≥ 400,"Cc1ncsc1-c1ccc([C@]2(C)NC(C3C[C@@H](O)CN3C(=O)[C@H](C(C)C)N3Cc4ccccc4C3=O)=NC2=O)cc1 (single isomer, unassigned) [Example 123.1]"
5.48,3.98,4.68,"Cc1ncsc1-c1ccc([C@]2(C)NC(C3C[C@@H](O)CN3C(=O)[C@H](C(C)C)N3Cc4ccccc4C3=O)=NC2=O)cc1 (single isomer, unassigned) [Example 123.2]"
100,≥ 150,≥ 400,"CC(=O)N1CCCCC1C(=O)N1C[C@H](O)CC1C1=NC(=O)[C@](C)(c2ccc(-c3scnc3C)cc2)N1 (single isomer, unassigned) [Example 124.1]"
